This note sets out measurements from patent US10865191B2, “Heterocyclic compounds useful as modulators of TNF alpha” (BRISTOL-MYERS SQUIBB COMPANY, priority 2015, dated 2020).

The structures appear in SMILES notation. Where two headings read alike, the source gives them in different places. A value given as a limit tells only on which side of the number the result lay.

The experiment concerns the target TNFα (Homo sapiens, UniProt P01375). Description: TNF induced HEK-Blue assay (NF-kB-driven secreted alkaline phosphatase reporter). To be noted: TNFα 0.5 ng/mL, HEK-Blue-CD40L cells, 18 h. Type of experiment: cell-based. In short, it runs like this: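 HEK-Blue-CD40L cells (NF-kB-driven SEAP reporter), 20,000/well, added after 30 min pre-incubation of compound (0.004–25 μM final) with TNFα 0.5 ng/mL final at 37 °C; 18 h incubation. SEAP read with QUANTI-Blue at 620 nm; IC50 from 4-parameter logistic fit, normalized to unstimulated and stimulated DMSO controls.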

[1] abbreviates: read-out: TNF induced HEK-Blue assay IC50 value.
Setting [2] is: TNF induced HEK-Blue assay IC50 value.

Sequence of TNFα (P01375 77-233 limits assumed): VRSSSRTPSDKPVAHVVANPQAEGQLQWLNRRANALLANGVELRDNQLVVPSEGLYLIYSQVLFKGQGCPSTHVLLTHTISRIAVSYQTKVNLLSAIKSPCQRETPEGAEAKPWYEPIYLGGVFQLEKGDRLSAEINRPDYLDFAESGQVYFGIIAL

Consider `CC(Nc1c(Cl)cnc2ccc(-c3cnc(C(C)(C)O)nc3)cc12)c1cc(Cl)ccn1` (racemic) [Example 62, 2-(5-(3-chloro-4-((1-(4-chloropyridin-2-yl)ethyl)amino)quinolin-6-yl)pyrimidin-2-yl)propan-2-ol], for which the IC50 – broadly, the midpoint of a concentration-inhibition curve – under setting [1] lay in the range of 1 to 10 µM. With `CC(C)(O)c1ncc(-c2cc3c(N[C@@H](c4ccccc4F)C(F)F)c(Cl)cnc3cc2F)cn1` [Example 269, (S)-2-(5-(3-chloro-4-((2,2-difluoro-1-(2-fluorophenyl)ethyl)amino)-7-fluoroquinolin-6-yl)pyrimidin-2-yl)propan-2-ol], the IC50 under setting [1] was less than 1 µM.

On to `COC(=O)CN1CCN(c2ncc(-c3ccc4ncc(Cl)c(N[C@@H](c5ccccc5F)C(F)F)c4c3)cn2)CC1` [Example 14, (S)-methyl 2-(4-(5-(3-chloro-4-((2,2-difluoro-1-(2-fluorophenyl)ethyl)amino)quinolin-6-yl)pyrimidin-2-yl)piperazin-1-yl)acetate], for which the IC50 under setting [1] is less than 1 µM. Still for that read-out and setting: in the case of `Cc1nc2ccc(-c3cnc(C(C)(C)O)nc3)cc2c(N[C@H](C)c2cc(C3=CCCC3)ccc2F)c1Cl` [Example 333, (R)-2-(5-(3-chloro-4-((1-(5-(cyclopent-1-en-1-yl)-2-fluorophenyl)ethyl)amino)-2-methylquinolin-6-yl)pyrimidin-2-yl)propan-2-ol] it was less than 1 µM; in that of `CC1Cc2ccccc2N1Nc1c(Cl)cnc2ccc(-c3cnc(C(C)(C)O)nc3)cc12` (racemic) [Example 48, 2-(5-(3-chloro-4-((2-methylindolin-1-yl)amino)quinolin-6-yl)pyrimidin-2-yl)propan-2-ol], less than 1 µM. Take `Cc1nc2ccc(-c3cnc(C(C)(C)O)nc3)cc2c(N[C@H](C)c2cc(-n3cccn3)ccc2F)c1Cl` [Example 365, (R)-2-(5-(3-chloro-4-((1-(2-fluoro-5-(1H-pyrazol-1-yl)phenyl)ethyl)amino)-2-methylquinolin-6-yl)pyrimidin-2-yl)propan-2-ol]: under setting [1], the IC50 is less than 1 µM. Still for that read-out and setting: the same measure for `CC(Nc1c(Cl)cnc2cc(F)c(-c3cnc(N4CCC(C(=O)O)CC4)nc3)cc12)c1ccccc1F` (single isomer, unassigned) [Example 244, 1-(5-(3-chloro-7-fluoro-4-((1-(2-fluorophenyl)ethyl)amino)quinolin-6-yl)pyrimidin-2-yl)piperidine-4-carboxylic acid]: less than 1 µM; for `CC(Nc1c(Cl)cnc2ccc(-c3ccc(C(C)(C)O)cc3)cc12)c1ccncn1` (racemic) [Example 173, 2-(4-(3-chloro-4-((1-(pyrimidin-4-yl)ethyl)amino)quinolin-6-yl)phenyl)propan-2-ol]: 1 to 10 µM; for `CC(=O)NC(C)(C)c1ccc(-c2ccc3ncc(Cl)c(NC(C)c4ccccc4F)c3c2)cc1` (stereo not shown) [Example 592, N-(2-(4-(3-chloro-4-((1-(2-fluorophenyl)ethyl)amino)quinolin-6-yl)phenyl)propan-2-yl)acetamide]: 1 to 10 µM. Still for that read-out and setting: the same measure for `CC(Nc1c(Cl)cnc2ccc(-c3cnc(C(C)(C)O)nc3)cc12)c1nc(C(N)=O)ccc1F` (racemic) [Example 28, 6-(1-((3-chloro-6-(2-(2-hydroxypropan-2-yl)pyrimidin-5-yl)quinolin-4-yl)amino)ethyl)-5-fluoropicolinamide]: less than 1 µM; for `C[C@@H](Nc1c(Cl)cnc2cc(F)c(-c3cnc(N4CCN(CC(=O)NCC(=O)O)CC4)nc3)cc12)c1ccccc1F` [Example 304, (R)-(2-(4-(5-(3-chloro-7-fluoro-4-((1-(2-fluorophenyl)ethyl)amino)quinolin-6-yl)pyrimidin-2-yl)piperazin-1-yl)acetyl)glycine]: less than 1 µM; for `CC(C)(O)c1ncc(-c2ccc3ncc(Cl)c(NC(c4ccccc4F)C(F)(F)F)c3c2)cn1` (racemic) [Example 164, 2-(5-(3-chloro-4-((2,2,2-trifluoro-1-(2-fluorophenyl)ethyl)amino)quinolin-6-yl)pyrimidin-2-yl)propan-2-ol]: 1 to 10 µM.

`COc1cncc(-c2ccc(F)c([C@@H](C)Nc3c(Cl)cnc4ccccc34)c2)c1` [Example 522, (R)-3-chloro-N-(1-(2-fluoro-5-(5-methoxypyridin-3-yl)phenyl)ethyl)quinolin-4-amine]: the IC50 under setting [1] is less than 1 µM.

Regarding `CC(=O)NC1CCC(O)(c2ncc(-c3ccc4ncc(Cl)c(N[C@H](C)c5ccccc5F)c4c3)cn2)CC1` (stereo partly drawn) [Example 131, (R)—N-(4-(5-(3-chloro-4-((1-(2-fluorophenyl)ethyl)amino)quinolin-6-yl)pyrimidin-2-yl)-4-hydroxycyclohexyl)acetamide], under setting [1], the IC50 was in the range of 1 to 10 µM. Take `Cc1nc2cc(F)c(-c3ccc(=O)[nH]c3)cc2c(N[C@H](C)c2cc(C#N)ccc2F)c1Cl` [Example 450, (R)-3-(1-((3-chloro-7-fluoro-2-methyl-6-(6-oxo-1,6-dihydropyridin-3-yl)quinolin-4-yl)amino)ethyl)-4-fluorobenzonitrile]: under setting [1], the IC50 was less than 1 µM.

In the case of `CC(Nc1c(F)cnc2ccc(-c3cnc(C(C)(C)O)nc3)cc12)c1ccccc1F` (racemic) [Example 156, 2-(5-(3-fluoro-4-((1-(2-fluorophenyl)ethyl)amino)quinolin-6-yl)pyrimidin-2-yl) propan-2-ol], under setting [1], the IC50 is 1 to 10 µM. Still for that read-out and setting: the same measure for `C[C@@H](Nc1c(Cl)cnc2ccc(-c3ccc(CN4CCC4)cc3)cc12)c1ccccc1F` [Example 30, (R)-6-(4-(azetidin-1-ylmethyl)phenyl)-3-chloro-N-(1-(2-fluorophenyl)ethyl)quinolin-4-amine]: 10 to 25 µM; for `CC(C)(O)c1ncc(-c2ccc3ncc(Cl)c(NC(C)(C)c4cccc(C(F)(F)F)c4)c3c2)cn1` [Example 182, 2-(5-(3-chloro-4-((2-(3-(trifluoromethyl)phenyl)propan-2-yl)amino)quinolin-6-yl)pyrimidin-2-yl)propan-2-ol]: 10 to 25 µM. Consider `CC(Nc1c(Cl)cnc2ccc(-c3cnc(C(C)(C)O)nc3)c(Cl)c12)c1ccccc1F` (racemic) [Example 296, 2-(5-(3,5-dichloro-4-((1-(2-fluorophenyl)ethyl)amino)quinolin-6-yl)pyrimidin-2-yl)propan-2-ol], for which the IC50 under setting [2] was less than 1 µM. As for `CC(Nc1c(Cl)cnc2cc(F)c(-c3cnc(C(C)(C)O)cn3)cc12)c1ccccc1F` (single isomer, unassigned) [Example 595, 2-(5-(3-chloro-7-fluoro-4-((1-(2-fluorophenyl)ethyl)amino)quinolin-6-yl)pyrazin-2-yl)propan-2-ol], the IC50 under setting [1] was less than 1 µM.

Regarding `CNc1ncc(-c2ccc3ncc(Cl)c(N[C@H](C)c4ccccc4F)c3c2)cn1` [Example 17, (R)-3-chloro-N-(1-(2-fluorophenyl)ethyl)-6-(2-(methylamino)pyrimidin-5-yl)quinolin-4-amine], the IC50 under setting [1] was in the range of 10 to 25 µM.

Regarding `C[C@@H](Nc1c(Cl)cnc2cc(F)c(-c3cnc(C(C)(C)O)nc3)nc12)c1cc(C(O)CO)ccc1F` (stereo partly drawn) [Example 504, 1-(3-((R)-1-((3-chloro-7-fluoro-6-(2-(2-hydroxypropan-2-yl)pyrimidin-5-yl)-1,5-naphthyridin-4-yl)amino)ethyl)-4-fluorophenyl)ethane-1,2-diol], the IC50 under setting [1] was less than 1 µM. On to `C[C@@H](Nc1c(Cl)cnc2ccc(-c3cnc(N4CCN(CC(N)=O)CC4)nc3)cc12)c1ccccc1F` [Example 90, (R)-2-(4-(5-(3-chloro-4-((1-(2-fluorophenyl)ethyl)amino)quinolin-6-yl)pyrimidin-2-yl)piperazin-1-yl)acetamide], for which, under setting [2], the IC50 was less than 1 µM. As for `Cc1ccc(C)c(Nc2c(Cl)c(C)nc3ccc(-c4ccc(C(=O)O)nc4)cc23)c1` [Example 9, 5-(3-chloro-4-((2,5-dimethylphenyl)amino)-2-methylquinolin-6-yl)picolinic acid], under setting [1], the IC50 lay in the range of 10 to 25 µM. On the same count and under the same terms, the same measure for `CC(Nc1c(Cl)cnc2cc(F)c(-c3cnc(C(C)(O)CO)nc3)cc12)c1ccccc1F` (stereo not shown) [Example 254, 2-(5-(3-chloro-7-fluoro-4-((1-(2-fluorophenyl)ethyl)amino)quinolin-6-yl)pyrimidin-2-yl)propane-1,2-diol]: less than 1 µM; for `Cc1nc2ccc(-c3cnc(C(C)(C)O)nc3)cc2c(N[C@H](C)c2ccccc2F)c1Cl` [Example 441, (R)-2-(5-(3-chloro-4-((1-(2-fluorophenyl)ethyl)amino)-2-methylquinolin-6-yl)pyrimidin-2-yl)propan-2-ol]: less than 1 µM. With `CC(Nc1c(Cl)cnc2cc(F)c(-c3ccc(C4(CO)CC4)cc3)cc12)c1ccccc1F` (racemic) [Example 264, (1-(4-(3-chloro-7-fluoro-4-((1-(2-fluorophenyl)ethyl)amino)quinolin-6-yl)phenyl)cyclopropyl)methanol], under setting [1], the IC50 was less than 1 µM. On the same count and under the same terms, the same measure for `CC(CC(O)(c1ccccc1)c1ccccc1)Nc1c(Cl)cnc2ccc(-c3cnc(C(C)(C)O)nc3)cc12` (racemic) [Example 143, 3-((3-chloro-6-(2-(2-hydroxypropan-2-yl)pyrimidin-5-yl)quinolin-4-yl)amino)-1,1-diphenylbutan-1-ol]: 10 to 25 µM; for `Cc1nc2ccc(-c3cnc(C(C)(C)O)nc3)cc2c(N[C@H](c2cc(Br)ccc2F)C(F)F)c1Cl` [Example 321, (R)-2-(5-(4-((1-(5-bromo-2-fluorophenyl)-2,2-difluoroethyl)amino)-3-chloro-2-methylquinolin-6-yl)pyrimidin-2-yl) propan-2-ol]: 10 to 25 µM. The same measure, in the same setting: the same measure for `COc1ccc(F)c([C@@H](C)Nc2c(Cl)cnc3ccccc23)c1` [Example 451, (R)-3-chloro-N-(1-(2-fluoro-5-methoxyphenyl)ethyl)quinolin-4-amine]: 1 to 10 µM. With `CC(=O)c1ccc(F)c([C@@H](C)Nc2c(Cl)cnc3ccc(-c4cnc(C(C)(C)O)nc4)cc23)c1` [Example 409, (R)-1-(3-(1-((3-chloro-6-(2-(2-hydroxypropan-2-yl)pyrimidin-5-yl)quinolin-4-yl)amino)ethyl)-4-fluorophenyl)ethan-1-one], the IC50 under setting [1] is less than 1 µM.
